We go through 26 molecules from US20230117034A1, “PYRAZOLOTRIAZINES” (Bayer Aktiengesellschaft, priority 2019, published 2023).

Experiment [1] addresses CDK12/CycK (Homo sapiens, UniProt Q9NYV4). Briefly: CDK12/CycK high ATP kinase assay (TR-FRET, 2 mM ATP). In kind it is biochemical. The settings on record: 2 mM ATP (high ATP); median; read-out: CDK12/CyclinK, 2 mM ATP (high ATP), IC50-[mol/l] (median). In a few lines:
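Read-out is TR-FRET (Eu-anti-rabbit IgG, anti-phospho-c-Myc Ser62 antibody, streptavidin-XL665) after EDTA stop. Reaction ran 60 min at 22 °C using 1 µM biotin-peptide and high ATP (2 mM) with roughly 0.75 nM recombinant CDK12/CycK, after 15 min compound pre-binding; normalised emission ratios yield IC50.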

In experiment [2] the target is T1, CDK2/CycE (Homo sapiens, UniProt P24941).
T1 construct: purchased ProQinase GmbH (Freiburg, Germany); host or cells: insect cells (Sf9)
As to the kind of experiment: CDK2/CycE kinase assay (TR-FRET, 2 mM ATP). In kind it is biochemical. The settings on record: 2 mM ATP (high ATP); median; read-out: CDK2/CyclinE, 2 mM ATP (high ATP), IC50 (median). The method in brief: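 Biotin-peptide phosphorylation (0.75 µM substrate, 2 mM ATP final, 25 min, 22 °C) by Sf9-expressed GST-CDK2/GST-CycE, after a 15-min compound pre-binding step. Inhibition scaled between enzyme-free (100%) and uninhibited (0%) wells.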

Sequence of CDK12/CycK (Q9NYV4 with tags, fused parts or gaps): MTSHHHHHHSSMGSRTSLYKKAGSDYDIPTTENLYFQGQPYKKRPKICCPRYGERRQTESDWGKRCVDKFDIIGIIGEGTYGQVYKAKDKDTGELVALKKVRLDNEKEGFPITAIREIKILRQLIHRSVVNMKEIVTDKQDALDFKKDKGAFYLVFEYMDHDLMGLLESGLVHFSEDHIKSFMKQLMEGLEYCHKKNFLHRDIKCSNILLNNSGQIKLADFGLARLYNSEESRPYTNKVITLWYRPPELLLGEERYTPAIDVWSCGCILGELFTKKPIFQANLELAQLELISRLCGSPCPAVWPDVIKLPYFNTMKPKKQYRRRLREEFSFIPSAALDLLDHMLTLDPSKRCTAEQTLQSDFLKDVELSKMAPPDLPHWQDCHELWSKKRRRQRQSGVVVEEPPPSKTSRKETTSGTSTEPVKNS
Sequence of CDK12/CycK (O75909 1-300 partner limits assumed): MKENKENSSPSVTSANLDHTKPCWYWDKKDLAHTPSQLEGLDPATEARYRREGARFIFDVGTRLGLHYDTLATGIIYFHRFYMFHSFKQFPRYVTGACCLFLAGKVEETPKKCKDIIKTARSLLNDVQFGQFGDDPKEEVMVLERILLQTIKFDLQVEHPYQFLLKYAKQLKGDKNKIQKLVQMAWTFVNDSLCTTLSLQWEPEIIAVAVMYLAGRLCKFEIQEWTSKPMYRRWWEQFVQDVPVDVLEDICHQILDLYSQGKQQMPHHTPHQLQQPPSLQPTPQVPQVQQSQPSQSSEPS

Consider `Brc1cnn2c(NCc3nc4ccccc4[nH]3)nc(N3CCOCC3)nc12` [Example 4, N-[(1H-benzimidazol-2-yl)methyl]-8-bromo-2-(morpholin-4-yl)pyrazolo[1,5-a][1,3,5]triazin-4-amine], for which the IC50 in experiment [1] turned out to be 1.74 µM; in experiment [2] it was 2.28 µM.

For `Cc1cccc2[nH]c(CNc3nc(N4CCN(C)CC4)nc4c(Br)cnn34)nc12` [Example 151, 8-bromo-N-[(4-methyl-1H-benzimidazol-2-yl)methyl]-2-(4-methylpiperazin-1-yl)pyrazolo[1,5-a][1,3,5]triazin-4-amine], the IC50 is 4.24 µM in experiment [1] and 13.4 µM in experiment [2].

In the case of `Fc1cccc(-c2nnc(CNc3nc(N4C[C@H]5C[C@@H]4CO5)nc4c(Br)cnn34)[nH]2)c1` [Example 153, 8-bromo-N-{[5-(3-fluorophenyl)-4H-1,2,4-triazol-3-yl]methyl}-2-[(1R,4R)-2-oxa-5-azabicyclo[2.2.1]heptan-5-yl]pyrazolo[1,5-a][1,3,5]triazin-4-amine], the IC50 in experiment [1] was 2.95 µM; in experiment [2], 1.7 µM.

Turning to `CC(=O)NCCCc1cccc2[nH]c(CNc3nc(N4CCOCC4)nc4c(Br)cnn34)nc12.O=CO` [Example 115, formic acid-N-{3-[2-({[8-bromo-2-(morpholin-4-yl)pyrazolo[1,5-a][1,3,5]triazin-4-yl]amino}methyl)-1H-benzimidazol-4-yl]propyl}acetamide (1/1)], the IC50 in experiment [1] is 11.6 µM; in experiment [2], 10.7 µM.

Consider `CC1CN(C)CCN1c1nc(NCc2nc3ccccc3[nH]2)n2ncc(Br)c2n1` (stereo not shown) [Example 156, N-(1H-benzimidazol-2-ylmethyl)-8-bromo-2-(2,4-dimethylpiperazin-1-yl)pyrazolo[1,5-a][1,3,5]triazin-4-amine], for which the IC50 in experiment [1] worked out at 9.4 µM; in experiment [2], 3.48 µM.

On to `C[C@@H]1CN(c2nc(NCc3nc4c(F)cccc4[nH]3)n3ncc(Br)c3n2)C[C@H](C)O1` [Example 109, 8-bromo-2-[(2R,6S)-2,6-dimethylmorpholin-4-yl]-N-[(4-fluoro-1H-benzimidazol-2-yl)methyl]pyrazolo[1,5-a][1,3,5]triazin-4-amine], for which the IC50 in experiment [1] was determined as 0.176 µM; in experiment [2] it was 4.01 µM.

For `Brc1cnn2c(NCc3nc4ccccc4[nH]3)nc(N3C[C@@H]4CCCN[C@@H]4C3)nc12` [Example 146, N-[(1H-benzimidazol-2-yl)methyl]-8-bromo-2-[(4aS,7aS)-octahydro-6H-pyrrolo[3,4-b]pyridin-6-yl]pyrazolo[1,5-a][1,3,5]triazin-4-amine], the IC50 in experiment [1] worked out at 8.86 µM; in experiment [2], 7.11 µM.

With `CN1CCN(c2nc(NCc3nc4cc(F)ccc4[nH]3)n3ncc(C4CC4)c3n2)CC1` [Example 164, 8-cyclopropyl-N-[(5-fluoro-1H-benzimidazol-2-yl)methyl]-2-(4-methylpiperazin-1-yl)pyrazolo[1,5-a][1,3,5]triazin-4-amine], the IC50 in experiment [1] and in experiment [2] was more than 20 µM in each case.

In the case of `Cc1cccc2[nH]c(CNc3nc(N4CCOCC4)nc4c(Br)cnn34)nc12` [Example 150, 8-bromo-N-[(4-methyl-1H-benzimidazol-2-yl)methyl]-2-(morpholin-4-yl)pyrazolo[1,5-a][1,3,5]triazin-4-amine], the IC50 in experiment [1] is 2.66 µM; in experiment [2], 4.36 µM.

Turning to `C[C@H]1CN(c2nc(NCc3nc4ccccc4[nH]3)n3ncc(Br)c3n2)CCN1C` [Example 132, N-[(1H-benzimidazol-2-yl)methyl]-8-bromo-2-[(3S)-3,4-dimethylpiperazin-1-yl]pyrazolo[1,5-a][1,3,5]triazin-4-amine], the IC50 in experiment [1] is more than 19.2 µM; in experiment [2] it was 7.43 µM.

On to `COc1ccc2[nH]c(CNc3nc(N4CCOCC4)nc4c(Br)cnn34)nc2c1` [Example 160, 8-bromo-N-[(5-methoxy-1H-benzimidazol-2-yl)methyl]-2-(morpholin-4-yl)pyrazolo[1,5-a][1,3,5]triazin-4-amine], for which the IC50 in experiment [1] was found to be 1.24 µM; in experiment [2], 5.17 µM.

As to `CN1CCN(c2nc(NCc3nc4cc(F)ccc4[nH]3)n3ncc(Br)c3n2)CC1` [Example 134, 8-bromo-N-[(5-fluoro-1H-benzimidazol-2-yl)methyl]-2-(4-methylpiperazin-1-yl)pyrazolo[1,5-a][1,3,5]triazin-4-amine], the IC50 was more than 17.7 µM in experiment [1] and 12 µM in experiment [2].

For `Fc1ccccc1-c1cnn2c(NCc3nc4ccccc4[nH]3)nc(N3CCOCC3)nc12` [Example 95, N-[(1H-benzimidazol-2-yl)methyl]-8-(2-fluorophenyl)-2-(morpholin-4-yl)pyrazolo[1,5-a][1,3,5]triazin-4-amine], the IC50 in experiment [1] and in experiment [2] was more than 20 µM in each case.

Consider `C[C@@H]1CN(c2nc(NCc3nc4ccccc4[nH]3)n3ncc(Br)c3n2)CCN1C` [Example 135, N-[(1H-benzimidazol-2-yl)methyl]-8-bromo-2-[(3R)-3,4-dimethylpiperazin-1-yl]pyrazolo[1,5-a][1,3,5]triazin-4-amine], for which the IC50 in experiment [1] amounted to 14.5 µM; in experiment [2] it was 7.75 µM.

With `C[C@@H]1CCCCN1c1nc(NCc2nc3ccccc3[nH]2)n2ncc(Br)c2n1` [Example 140, N-[(1H-benzimidazol-2-yl)methyl]-8-bromo-2-[(2R)-2-methylpiperidin-1-yl]pyrazolo[1,5-a][1,3,5]triazin-4-amine], the IC50 in experiment [1] was 8.15 µM; in experiment [2], 1.25 µM.

Regarding `CC1(C)CN(c2nc(NCc3nc4ccccc4[nH]3)n3ncc(C4CC4)c3n2)CCO1` [Example 123, N-[(1H-benzimidazol-2-yl)methyl]-8-cyclopropyl-2-(2,2-dimethylmorpholin-4-yl)pyrazolo[1,5-a][1,3,5]triazin-4-amine], the IC50 in experiment [1] is 12.6 µM; in experiment [2], more than 20 µM.

As to `Fc1cccc(-c2nnc(CNc3nc(N4CCNCC4)nc4c(Br)cnn34)[nH]2)c1` [Example 152, 8-bromo-N-{[5-(3-fluorophenyl)-4H-1,2,4-triazol-3-yl]methyl}-2-(piperazin-1-yl)pyrazolo[1,5-a][1,3,5]triazin-4-amine], the IC50 in experiment [1] was 2.99 µM; in experiment [2], 5.42 µM.

Consider `Clc1ccc2[nH]c(CNc3nc(N4CCOCC4)nc4c(Br)cnn34)nc2c1` [Example 162, 8-bromo-N-[(5-chloro-1H-benzimidazol-2-yl)methyl]-2-(morpholin-4-yl)pyrazolo[1,5-a][1,3,5]triazin-4-amine], for which the IC50 in experiment [1] was 1.02 µM; in experiment [2] it was 4.63 µM.

Regarding `NCCCc1cccc2[nH]c(CNc3nc(N4CCOCC4)nc4c(Br)cnn34)nc12.O=CO` [Example 114, formic acid-N-{[4-(3-aminopropyl)-1H-benzimidazol-2-yl]methyl}-8-bromo-2-(morpholin-4-yl)pyrazolo[1,5-a][1,3,5]triazin-4-amine (1/1)], the results for the IC50 in experiment [1] and in experiment [2] were 8.13 µM and 5.44 µM, respectively.

Take `C[C@@H]1CN(c2nc(NCc3nc4ccccc4[nH]3)n3ncc(Br)c3n2)C[C@H](C)N1C` [Example 129, N-(1H-benzimidazol-2-ylmethyl)-8-bromo-2-[(3R,5S)-3,4,5-trimethylpiperazin-1-yl]pyrazolo[1,5-a][1,3,5]triazin-4-amine]: the IC50 in experiment [1] was more than 18.2 µM; in experiment [2], more than 20 µM.

For the molecule `C[C@@H]1CN(c2nc(NCc3nc4cc(F)ccc4[nH]3)n3ncc(Br)c3n2)C[C@H](C)O1` [Example 110, 8-bromo-2-[(2R,6S)-2,6-dimethylmorpholin-4-yl]-N-[(5-fluoro-1H-benzimidazol-2-yl)methyl]pyrazolo[1,5-a][1,3,5]triazin-4-amine], the IC50 in experiment [1] came to 0.405 µM; in experiment [2] it was 8.21 µM.

With `CN1CCN(c2nc(NCc3nc4cc(Cl)ccc4[nH]3)n3ncc(Br)c3n2)CC1` [Example 163, 8-bromo-N-[(5-chloro-1H-benzimidazol-2-yl)methyl]-2-(4-methylpiperazin-1-yl)pyrazolo[1,5-a][1,3,5]triazin-4-amine], the IC50 is more than 5.71 µM in experiment [1] and 10.8 µM in experiment [2].

With `Brc1cnn2c(NCc3nnc(-c4ccccc4)[nH]3)nc(N3C[C@H]4C[C@@H]3CO4)nc12` [Example 118, 8-bromo-2-[(1R,4R)-2-oxa-5-azabicyclo[2.2.1]heptan-5-yl]-N-[(5-phenyl-4H-1,2,4-triazol-3-yl)methyl]pyrazolo[1,5-a][1,3,5]triazin-4-amine], the IC50 turned out to be 5.7 µM in experiment [1] and 3.39 µM in experiment [2].

Consider `Fc1cc(-c2nnc(CNc3nc(N4CCOCC4)nc4c(Br)cnn34)[nH]2)cc(F)c1F` [Example 100, 8-bromo-2-(morpholin-4-yl)-N-{[5-(3,4,5-trifluorophenyl)-4H-1,2,4-triazol-3-yl]methyl}pyrazolo[1,5-a][1,3,5]triazin-4-amine], for which the IC50 came to 1.24 µM in experiment [1] and 1.83 µM in experiment [2].

With `CN1CCN(c2nc(NCc3nc4ccccc4[nH]3)n3ncc(Br)c3n2)CC1=O` [Example 131, 4-(4-{[(1H-benzimidazol-2-yl)methyl]amino}-8-bromopyrazolo[1,5-a][1,3,5]triazin-2-yl)-1-methylpiperazin-2-one], the IC50 in experiment [1] is 11.1 µM; in experiment [2], more than 20 µM.

Regarding `c1cncc(-c2cnn3c(NCc4nc5ccccc5[nH]4)nc(N4CCOCC4)nc23)c1` [Example 108, N-[(1H-benzimidazol-2-yl)methyl]-2-(morpholin-4-yl)-8-(pyridin-3-yl)pyrazolo[1,5-a][1,3,5]triazin-4-amine], the IC50 in experiment [1] and in experiment [2] was more than 20 µM in each case.
